The NIST ThermoML archive (doi:10.1021/je100145f)

Test: molar heat capacity at constant pressure; xn = mol fraction of the nth substance listed
Conditions: 101 kPa, Liquid, Small sample (50 mg) DSC

N#Cc1ccccc1 [benzonitrile] + CCCCCCCCC
molar heat capacity at constant pressure [J/K/mol]
Conditions	285.15 K	288.15 K	293.15 K	298.15 K	303.15 K	308.15 K	313.15 K
x1 = 0.0239	275.6	276.8	278.87	280.98	283.18	285.48	287.76
x1 = 0.0499	272.83	274.01	276.02	278.11	280.26	282.5	284.75
x1 = 0.0989	267.94	269.06	270.98	272.97	275.01	277.16	279.34
x1 = 0.1984	258.53	259.47	261.13	262.87	264.72	266.66	268.65
x1 = 0.2543	253.53	254.27	255.7	257.26	258.97	260.77	262.65
x1 = 0.3	249.7	250.12	251.28	252.66	254.22	255.89	257.63
x1 = 0.4004	242.4	241.04	241.24	242.16	243.44	244.94	246.59
x1 = 0.4968	234.22	230.79	230.43	231.16	232.33	233.66	235.16
x1 = 0.6	217.32	216.76	217.29	218.27	219.53	220.89	222.37
x1 = 0.6996	202.24	202.88	204.1	205.37	206.74	208.21	209.67
x1 = 0.8	189.2	189.97	191.28	192.63	194	195.39	196.84
x1 = 0.9	176.74	177.48	178.75	180.02	181.35	182.67	184.01
x1 = 0.9498	170.45	171.18	172.4	173.65	174.93	176.22	177.48
x1 = 0.9805	166.46	167.19	168.41	169.64	170.89	172.18	173.44
x1 = 1	163.9	164.63	165.82	167.06	168.32	169.59	170.87

N#Cc1ccccc1 [benzonitrile] + CCCCCCCC
molar heat capacity at constant pressure [J/K/mol]
Conditions	283.15 K	288.15 K	293.15 K	298.15 K	303.15 K	308.15 K	313.15 K	318.15 K
x1 = 0.0219	246.32	248.19	250.11	252.1	254.14	256.24	258.38	260.56
x1 = 0.0576	243.69	245.52	247.38	249.32	251.3	253.34	255.43	257.56
x1 = 0.1021	240.66	242.38	244.17	246	247.92	249.87	251.88	253.94
x1 = 0.1999	234.51	235.9	237.41	239.04	240.74	242.5	244.34	246.23
x1 = 0.2998	229.04	229.53	230.52	231.82	233.28	234.82	236.47	238.12
x1 = 0.4002	224.38	222.59	223.06	224.03	225.26	226.66	228.12	229.73
x1 = 0.4637	219.83	217.33	217.69	218.58	219.78	221.13	222.51	–
x1 = 0.5001	215.93	213.9	214.32	215.28	216.5	217.77	219.26	220.74
x1 = 0.6001	203.15	203.61	204.57	205.76	207.09	208.41	209.85	211.38
x1 = 0.7003	192.17	193.38	194.65	195.97	197.33	198.73	200.16	201.61
x1 = 0.7999	182.68	183.92	185.2	186.53	187.88	189.25	190.63	192.02
x1 = 0.9	173.26	174.47	175.71	176.98	178.27	179.58	180.92	182.23
x1 = 0.95	168.41	169.62	170.83	172.09	173.36	174.65	175.96	177.25
x1 = 0.9801	165.44	166.62	167.83	169.07	170.34	171.61	172.89	174.17
x1 = 1	163.43	164.61	165.82	167.06	168.32	169.59	170.87	172.15
